Measurements as given in ChEMBL document CHEMBL3046697, “Syntheses, antifeedant activity, and QSAR analysis of new oxa(thia)diazolyl 3(2H)-pyridazinones” (J Agric Food Chem, 2005).

Assays:
Mythimna separata = test: Antifeedant activity against second-instar larvae of Mythimna separata (Oriental armyworm) in compound treated leaves assessed as growth inhibition measured after 5 days by chronic growth bioassay; assay type: functional, organism-based; conditions: 120 h
[1] = Hydrophobicity, log P of the compound; assay type: physicochemical; conditions: octanol/water

Compound	EC50 (Mythimna separata; read-out: EC50) [µg/mL]	EC50 (Mythimna separata; read-out: pEC50 (converted)) [µM]	logP [1]
Cc1cc(C)cc(-c2nnc(COc3cnn(C(C)(C)C)c(=O)c3Cl)s2)c1	> 300	> 300	–
CC(C)(C)n1ncc(OCc2nnc(-c3ccc(Cl)cc3Cl)o2)c(Cl)c1=O	27.8	27.8	3.52
CC(C)(C)n1ncc(OCc2nnc(-c3cc(F)c(Cl)c([N+](=O)[O-])c3Cl)o2)c(Cl)c1=O	> 300	> 300	–
CC(C)(C)n1ncc(SCc2nnc(-c3ccccc3)o2)c(Cl)c1=O	> 300	> 300	–
CC(C)(C)n1ncc(OCc2nnc(-c3ccccc3F)o2)c(Cl)c1=O	16.8	16.8	2.89
CC(C)(C)n1ncc(OCc2nnc(-c3ccc(F)cc3)o2)c(Cl)c1=O	5.2	5.2	2.69
CC(C)(C)n1ncc(OCc2nnc(-c3c(F)cccc3F)o2)c(Cl)c1=O	45.4	45.4	2.75
Cc1cccc(-c2nnc(COc3cnn(C(C)(C)C)c(=O)c3Cl)o2)c1	116	116	3.02
CC(C)(C)n1ncc(SCc2nnc(-c3ccc(F)cc3)o2)c(Cl)c1=O	150	151	–
CC(C)(C)n1ncc(OCc2nnc(-c3c(F)c(F)c(F)c(F)c3F)o2)c(Cl)c1=O	271	271	3.06
CC(C)(C)n1ncc(OCc2nnc(-c3cc(F)c(F)c(F)c3F)o2)c(Cl)c1=O	241	240	3.18
COc1ccc(-c2nnc(COc3cnn(C(C)(C)C)c(=O)c3Cl)o2)cc1	17.7	17.7	3.52
CC(C)(C)n1ncc(OCc2nnc(-c3ccc(Cl)cc3)s2)c(Cl)c1=O	106	106	–
CC(C)(C)n1ncc(OCc2nnc(-c3cc(F)c(Cl)cc3Cl)s2)c(Cl)c1=O	67.1	67.1	–
CC(C)(C)n1ncc(OCc2nnc(-c3ccc(F)cc3)s2)c(Cl)c1=O	21.5	21.5	–
Cc1cccc(-c2nnc(CSc3cnn(C(C)(C)C)c(=O)c3Cl)o2)c1	> 300	> 300	–
O=c1c(Cl)c(OCc2nnc(-c3ccccc3)o2)cnn1-c1ccccc1	91.5	91.4	–
CC(C)(C)n1ncc(SCc2nnc(-c3ccccc3F)o2)c(Cl)c1=O	269	270	–
C/C=C(\C)C(=O)O[C@H]1C[C@@H](OC(C)=O)[C@@]2(C(=O)OC)CO[C@H]3[C@@H](O)[C@@](C)([C@]45O[C@@]4(C)[C@@H]4C[C@H]5O[C@@H]5OC=C[C@@]54O)[C@H]4[C@]1(CO[C@]4(O)C(=O)OC)[C@@H]32 [AZADIRACHTIN A]	0.58	0.579	–
CC(C)(C)n1ncc(OCc2nnc(-c3cccs3)o2)c(Cl)c1=O	> 300	> 300	–
CC(C)(C)n1ncc(OCc2nnc(-c3ccc(Cl)cc3Cl)s2)c(Cl)c1=O	62.2	62.2	–
CC(C)(C)n1ncc(OCc2nnc(-c3ccc([N+](=O)[O-])cc3)o2)c(Cl)c1=O	> 300	> 300	–
CCn1ncc(OCc2nnc(-c3ccccc3)o2)c(Cl)c1=O	> 300	> 300	–
CCCCn1ncc(OCc2nnc(-c3ccccc3)o2)c(Cl)c1=O	> 300	> 300	–
CCc1ccc(-c2nnc(COc3cnn(C(C)(C)C)c(=O)c3Cl)o2)cc1	14.5	14.5	3.52

Compound	EC50 (Mythimna separata; read-out: EC50) [µg/mL]	EC50 (Mythimna separata; read-out: pEC50 (converted)) [µM]	logP [1]
CCn1ncc(OCc2nnc(-c3ccc(F)cc3)o2)c(Cl)c1=O	> 300	> 300	–
CC(C)(C)n1ncc(OCc2nnc(-c3ccccc3)s2)c(Cl)c1=O	200	200	–
CC(C)(C)n1ncc(SCc2nnc(-c3ccc(Cl)cc3)o2)c(Cl)c1=O	180	180	–
CC(C)(C)n1ncc(OCc2nnc(-c3ccc(Br)cc3)o2)c(Cl)c1=O	21.4	21.4	3.21
CC(C)(C)n1ncc(OCc2nnc(-c3cc(F)c(F)cc3F)o2)c(Cl)c1=O	75.7	75.7	2.96
Cc1nnc(COc2cnn(C(C)(C)C)c(=O)c2Cl)o1	> 300	> 300	–
COc1c(F)c(F)cc(-c2nnc(COc3cnn(C(C)(C)C)c(=O)c3Cl)o2)c1F	> 300	> 300	–
CC(C)(C)n1ncc(SCc2nnc(-c3cccc(F)c3)o2)c(Cl)c1=O	243	243	–
CC(C)(C)n1ncc(OCc2nnc(-c3cccc(F)c3)o2)c(Cl)c1=O	7.1	7.1	2.69
CCCCn1ncc(OCc2nnc(-c3ccc(Cl)cc3)o2)c(Cl)c1=O	224	223	–
Cc1cccc(-c2nnc(COc3cnn(C(C)(C)C)c(=O)c3Cl)s2)c1	> 300	> 300	–
Cc1ccc(-c2nnc(COc3cnn(C(C)(C)C)c(=O)c3Cl)o2)cc1	19.9	19.9	3.01
CC(C)(C)n1ncc(SCc2nnc(-c3ccc([N+](=O)[O-])cc3)o2)c(Cl)c1=O	> 300	> 300	–
CC(C)(C)n1ncc(OCc2nnc(-c3ccco3)o2)c(Cl)c1=O	> 300	> 300	–
Cc1cc(C)cc(-c2nnc(CSc3cnn(C(C)(C)C)c(=O)c3Cl)o2)c1	> 300	> 300	–
CCCCn1ncc(OCc2nnc(-c3ccc(F)cc3)o2)c(Cl)c1=O	162	161	–
CC(C)(C)n1ncc(OCc2nnc(-c3ccccc3Cl)o2)c(Cl)c1=O	61.2	61.2	3.19
CC(C)(C)n1ncc(OCc2nnc(-c3cc(F)c(Cl)cc3Cl)o2)c(Cl)c1=O	23.1	23.1	3.36
CC(C)(C)n1ncc(OCc2nnc(-c3ccc(C(F)(F)F)cc3)o2)c(Cl)c1=O	34.1	33.8	3.66
Cc1cc(C)cc(-c2nnc(COc3cnn(C(C)(C)C)c(=O)c3Cl)o2)c1	> 300	> 300	–
CC(C)(C)n1ncc(OCc2nnc(-c3ccc(Cl)cc3F)o2)c(Cl)c1=O	10.4	10.4	3.23
CC(C)(C)n1ncc(OCc2nnc(-c3ccccc3F)s2)c(Cl)c1=O	121	121	–
CC(C)(C)n1ncc(OCc2nnc(-c3ccc(Cl)cc3)o2)c(Cl)c1=O	1.9	1.9	3.09
CC(C)(C)n1ncc(OCc2nnc(-c3ccccc3)o2)c(Cl)c1=O	12.2	12.2	2.95
